Test system: SARS-CoV-2
Experiment: Antiviral activity against SARS-CoV-2 Delta variant infected in African green monkey VeroE6/TMPRSS2 cells
Format: functional, organism-based
Conditions: Severe acute respiratory syndrome coronavirus 2, Delta

Structure (SMILES): CCC(CC)COC(=O)[C@H](C)N[P@](=O)(OC[C@H]1O[C@@](C#N)(c2ccc3c(N)ncnn23)[C@H](O)[C@@H]1O)Oc1ccccc1
- EC50: 161 nM

Reference: ChEMBL document CHEMBL5576048, “A Second-Generation Oral SARS-CoV-2 Main Protease Inhibitor Clinical Candidate for the Treatment of COVID-19” (J Med Chem, 2024)
